The source of these data is patent US5011828A, “Immunostimulating guanine derivatives, compositions and methods” (priority 1988, dated 1991).

Series [1] relates to murine lymphocytes (sheep red blood cells as antigen). Briefly: Antigen-specific adjuvanticity: direct anti-SRBC plaque forming cells, murine system. Format: cell-based, mouse. The note with it: for Direct anti-SRBC PFC/Culture at supraoptimal concentration: 3 × 10^-4 M. The method, boiled down: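 Murine spleen cells (5×10^6 to 10^7) cultured 4 or 5 days in 1.0 ml 5% FCS RPMI 1640, 37 °C, 10% CO2, with or without SRBC immunogen. Anti-SRBC direct plaque-forming cells counted per culture by modified Jerne–Nordin hemolytic plaque assay with guinea pig complement; mean ± standard error at peak concentration.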

A short description of the next series: physchem. Format: physicochemical, human. The source says: Solubilities in urine could be expected to be lower than those for water due to the relatively higher salt content in urine than is found in water.
Each sample was filtered through a 5 micron pore-sized filter, diluted as necessary with the HPLC mobile phase, and then quantified by HPLC.

Series [2] deals with CBA/CaJ thymocytes (irradiated BDF1 splenocyte stimulators). The experiment in a line: T cell proliferation in mixed leukocyte cultures, CBA/CaJ thymocytes. The note with it: Study 3, responder +, stimulator +. Format: cell-based, mouse. The source says: A third and fourth study utilized thymocytes from CBA/CaJ mice as the stimulated (responder) cells, and irradiated BDFl mouse spleen cells as the stimulator cells. Two guanosine derivatives of the present invention, 7a8MGuo and 7a8oGuo, were used for these studies, with 8MGuo serving as positive control for one of the studies.
However, in the presence of interleukin-2 (IL-2), those cells develop responsiveness to allogeneic stimulation. The present studies utilizing thymocytes were therefore carried out in the presence of a co-stimulating amount of IL-2.
(§1) ^1 Plus signs (+) are utilized to indicate the presence of the
(§2) ^3 Allogeneic cells used to costimulate proliferation, after exposure
(§3) T Helper Cell Activation. 1.5×10^5 viable spleen cells from SJL mice or CBA/CaJ mouse thymocytes were cultured with or without an equal number of irradiated (2500 rads) spleen cells from CBA/CaJ or BDFl mice respectively, in 0.2 ml of culture medium in the presence of incremental concentrations of the exemplary 7,8-disubstituted guanine derivatives. The lymphocyte culture medium utilized was that described before, and was further supplemented with 2-mercaptoethanol to a final concentration of 50 uM. Thymocyte cultures also contained 10 percent (v/v) of a concanavalin A-conditioned rat spleen cell medium sold under the name Rat T Cell Monoclone by Collaborative Research. Following 90 hours of culture, one microCurie [^3 H]TdR per culture was admixed, and the resulting culture was maintained for a further six hour time period.
(§4) The cultures were harvested with a Brandel cell harvester (M24V, Biological Research and Development Laboratories, Rockville, Md.) onto glass fiber filter disks. Filter disks were transferred to plastic scintillation vials, covered with liquid scintillation cocktail, and counted in a Beckman LS5700 liquid scintillation counter.

For series [3], the system named is SJL splenocytes (irradiated CBA/CaJ splenocyte stimulators). Briefly: T cell proliferation in mixed leukocyte cultures, SJL splenocytes. The class given is cell-based, mouse. Conditions: responder +.
Description: In evaluating the effect of a guanosine derivative on alloantigen-induced proliferation, it is imperative to minimize the simultaneous mitogenic response of B cells to contact with a guanosine derivative. Spleen cells from SJL mice (whose B cells are hyporesponsive to the mitogenic effect of a guanosine derivative, but not to its adjuvant activity) were used as responder cells in two studies. Those responder cells were stimulated with irradiated allogenic cells (from CBA/CaJ mice) in the presence of no added nucleoside, incremental amounts of a guanosine derivative of the invention, 7M8oGuo, or with another guanosine derivative, 8MGuo, used as a positive control.
as §1
material of the column heading in the culture medium, whereas minus signs
(-) are utilized to show absence of such a material from the culture
as §2, §3, §4

Structures are written as SMILES. Values after ≈ are worked out from the molar mass of the structure shown.

`C=CCn1c(=S)n([C@@H]2O[C@H](CO)[C@@H](O)[C@H]2O)c2nc(N)[nH]c(=O)c21` [7a8MGuo, 7-(2-Propenyl)-8-thioxoguanosine]: the “Direct anti-SRBC PFC/Culture at supraoptimal concentration” value in series [1] (Table 5, supraoptimal concentration (*)) is reported as 925 ± 80 PFC/Culture; in series [1] (Table 6, study b, supraoptimal amount (*)) it was 925 ± 80 PFC/Culture. In addition, the “Peak Direct anti-SRBC PFC/Culture” value in series [1] (Table 5, murine system, at peak concentration) is recorded as 1850 ± 70 PFC/Culture; in series [1] (Table 6, murine system, at peak concentration), 1867 ± 150 PFC/Culture; in series [1] (Table 6, study a) it was 1850 ± 50 PFC/Culture; in series [1] (Table 6, study c), 1975 ± 109 PFC/Culture. In addition, in series [1] (Table 8, 1 × 10^-5 M), the “Direct Anti-SRBC PFC/Culture” value is 1049 PFC/Culture. Moreover, the “Average 1 Log Plaque Values” in series [1] (Table 9, murine, * = single study) is 326,840 ± 170,907 per micromole. Moreover, the “adjuvanticity higher / more active than comparison compound of U.S. Pat. No. 4,643,992” value in series [1] (murine system (Table 5), vs 7m8oGuo or compounds of that patent) is recorded as “more than 100%”. In addition, the “solubility in human urine, in words” value in “physchem” is “relatively insoluble”. In “physchem” (human, urine), this molecule gave a solubility at 18 h of 300 µg/mL (≈ 844 µM). The “[3H] TdR Uptake” value in series [2] (10^-4 M) was 21,400 ± 1200 counts per minute; in series [2] (10^-5 M) it was 15,300 ± 600 counts per minute; in series [2] (10^-6 M), 11,800 ± 400 counts per minute; in series [3] (Study 1, stimulator +, 10^-5 M), 67,500 ± 2900 counts per minute; in series [3] (Study 1, stimulator -, 10^-5 M) it was 36,700 ± 2400 counts per minute; in series [3] (Study 2, stimulator +, 10^-5 M), 36,400 ± 3800 counts per minute. The “[3H] TdR Uptake” value in series [3] (Study 2, stimulator -) is reported as 19,100 ± 1100 counts per minute.
